According to patent US20230028441A1, “NOVEL HETEROARYL-TRIAZOLE COMPOUNDS AS PESTICIDES” (Bayer Aktiengesellschaft, priority 2019, published 2023):

Key:
Format in all cases: in vivo
[1] = test system: adult engorged female ticks (Rhipicephalus microplus); assay: Rhipicephalus (Boophilus) microplus injection test; details: 168 h, egg deposition after 7 days, read-out: efficacy (infertile eggs); for pest or weed control at 0.004 mg: 4 μg/animal; for pest or weed control at 0.02 mg: 20 μg/animal
Summary of the method: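 Compound was dissolved in DMSO at 10 mg per 0.5 mL and diluted with DMSO to the test concentration. Five engorged adult females received a 1 μL abdominal injection and were kept in a climate chamber. After 7 days, fertile egg deposition was scored, with unclear eggs held until hatching at about 42 days; 100% efficacy means all eggs were infertile.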

[2] = test system: two spotted spidermite (Tetranychus urticae); assay: Tetranychus urticae spray test, OP-resistant; details: foliar, 144 h, after 6 days, French bean leaf disks
Experimental: Solvent: 78.0 parts by weight acetone • 1.5 parts by weight dimethylformamide
Emulsifier: alkylarylpolyglycol ether
To produce a suitable preparation of active compound, 1 part by weight of active compound is mixed with the stated amount of solvents and is diluted with water, containing an emulsifier concentration of 1000 ppm, to the desired concentration. Further test concentrations are prepared by dilution with emulsifier containing water.
French bean (Phaseolus vulgaris) leaf disks infected with all instars of the two spotted spidermite (Tetranychus urticae), are sprayed with a preparation of the active ingredient of the desired concentration.
After 6 days mortality in % is determined. 100% means all spider mites have been killed and 0% means none of the spider mites have been killed.

[3] = test system: cattle tick larvae (Rhipicephalus microplus), strain Parkhurst, resistant against synthetic pyrethroids; assay: Rhipicephalus (Boophilus) microplus in-vitro contact test, larval cattle tick; details: 5 μg/cm^2 (=500 g/ha), after 48 hours, read-out: efficacy (larvae dead or moribund)
Summary of the method: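 Acetone solutions of compound were coated on glass tube walls (900 ppm giving 5 μg/cm^2) and dried. 20–50 pyrethroid-resistant Parkhurst larvae were held per tube at 27° C and 85% relative humidity; after 48 h negative geotaxis scored efficacy as percent larvae dead or moribund.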

[4] = test system: adult unfed cat fleas (Ctenocephalides felis); assay: Ctenocephalides felis oral test; details: 48 h, 100 ppm in cattle blood, after 2 days
Summary of the method: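 About 20 adult unfed Ctenocephalides felis fed through parafilm on cattle blood dosed with compound (DMSO stock diluted in blood), blood chamber at 37°C, fleas at room temperature. Mortality (%) scored after 2 days; 100% means all fleas killed.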

[5] = test system: adult brown dog ticks (Rhipicephalus sanguineus); assay: Rhipicephalus sanguineus in-vitro contact test with adult brown dog ticks; details: after 48 hours, read-out: efficacy (ticks dead or moribund); for pest or weed control at 1 µg/cm2, 100 g/ha: 1 μg/cm^2 (=100 g/ha); for pest or weed control at 5 µg/cm2, 500 g/ha: 5 μg/cm^2 (=500 g/ha)
Summary of the method: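 Compound in acetone coated onto glass tube inner walls at 900 ppm, giving 5 μg/cm^2. Adult ticks (5-10 per tube) held at room temperature for 48 h, then placed on a 45-50° C. heating plate for up to 5 min. Ticks unable to climb away counted dead or moribund; efficacy given as % dead/moribund.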

[6] = test system: larvae of the banded cucumber beetle (Diabrotica balteata); assay: Diabrotica balteata spray test; details: 168 h, after 7 days, wheat seeds, read-out: efficacy (seedlings grown up); for pest or weed control at 32 µg/disc, 100 g/ha: 100 g/ha (=32 μg/well); for pest or weed control at 160 µg/disc, 500 g/ha: 500 g/ha (=160 μg/well)
Summary of the method: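 Germinated wheat seedlings (5 per well, agar plates) sprayed with compound in acetone/DMF diluted in water with 1000 ppm emulsifier, then infested with 10-20 larvae per unit. Efficacy scored after 7 days as % seedling growth relative to untreated, uninfested control (100% = normal growth, 0% = none).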

[7] = test system: green peach aphid (Myzus persicae); assay: Myzus persicae oral test; details: 120 h
Summary of the method: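 Compound was dissolved at 1 part by weight in 100 parts acetone, then diluted with water to test concentration and combined with IPL41 insect medium (33%+15% sugar). A mixed aphid population fed on this through a parafilm seal, and mortality (%) was scored after 5 days.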

[8] = test system: green peach aphid (Myzus persicae); assay: Myzus persicae spray test; details: foliar, 120 h, after 5 days, Chinese cabbage leaf disks
Summary of the method: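 Chinese cabbage leaf disks carrying all instars of Myzus persicae were sprayed with compound. The formulation was acetone/dimethylformamide diluted in water with 1000 ppm alkylarylpolyglycol ether emulsifier. Percent mortality was scored after 5 days, with 100% meaning all aphids killed.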

[9] = test system: larvae of the southern green stink bug (Nezara viridula); assay: Nezara viridula spray test; details: in Hordeum vulgare, 96 h
Summary of the method: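 Barley plants infested with Nezara viridula larvae were sprayed with compound in acetone/dimethylformamide, diluted in water containing 1000 ppm alkylarylpolyglycol ether emulsifier. Mortality (%) was scored after 4 days; 100% means all stink bugs killed.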

[10] = test system: fall armyworm larvae (Spodoptera frugiperda); assay: Spodoptera frugiperda spray test (maize leaf sections); details: 168 h
Summary of the method: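 Maize leaf sections were sprayed with compound formulated in acetone/DMF and diluted in water containing 1000 ppm emulsifier. Once dry, sections were infested with fall armyworm larvae. Mortality (%) was scored after 7 days.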

[11] = test system: caterpillars of the fall army worm (Spodoptera frugiperda); assay: Spodoptera frugiperda spray test (cotton leaves); details: 168 h
Summary of the method: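 Cotton leaves sprayed with compound in water/DMF with 1000 ppm alkylaryl polyglycol ether emulsifier, ammonium salt and/or penetration enhancer at 1000 ppm added if necessary, then infested with fall armyworm caterpillars. Mortality in % scored after 7 days; 100% means all caterpillars killed.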

[12] = test system: southern root-knot nematode (Meloidogyne incognita); assay: Meloidogyne incognita test; details: 336 h, after 14 days, read-out: nematicidal activity (gall formation)
Experimental: Solvent: 125.0 parts by weight of acetone
To produce a suitable preparation of active compound, 1 part by weight of active compound is mixed with the stated amount of solvent, and the concentrate is diluted with water to the desired concentration.
Vessels are filled with sand, a solution of the active ingredient, a suspension containing eggs and larvae of the southern root-knot nematode (Meloidogyne incognita) and salad seeds. The salad seeds germinate and the seedlings grow. Galls develop in the roots.
After 14 days the nematicidal activity is determined on the basis of the percentage of gall formation. 100% means no galls were found and 0% means the number of galls found on the roots of the treated plants was equal to that in untreated control plants.

[13] = test system: adult cat fleas (Ctenocephalides felis); assay: Ctenocephalides felis in-vitro contact test, adult cat flea; details: 5 μg/cm^2 (=500 g/ha), after 48 hours, read-out: efficacy (fleas dead or moribund)
Summary of the method: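 Acetone solutions were coated on glass tube walls, 900 ppm giving 5 μg/cm^2. After drying, 5-10 adult fleas per tube were held 48 h at room temperature. Fleas unable to climb away from a 45-50 °C heating plate within 5 min were scored dead or moribund, as % efficacy.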

[14] = test system: brown planthopper (Nilaparvata lugens); assay: Nilaparvata lugens spray test; details: in Oryza sativa, 96 h
Summary of the method: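 Rice plants (Oryza sativa) sprayed with compound in acetone/DMF diluted in water containing 1000 ppm alkylarylpolyglycol ether emulsifier, then infested with planthoppers. Mortality % scored after 4 days (100% = all killed, 0% = none killed).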

[15] = test system: Aedes aegypti strain MONHEIM; assay: Aedes aegypti test (AEDSAE surface treatment & contact assay); details: 24 hours after contact, read-out: efficacy (mortality)
Experimental: (§1) Solvent: Aceton+2000 ppm rapeseed oil methyl ester (RME)
(§2) In order to produce a sufficient, active ingredient containing solution it is necessary to solve the test compound in the solvent-mix (acetone at 2 mg/ml/RME 2000 ppm). This solution is pipetted onto a glazed tile and after evaporation of the acetone, adult mosquitoes of the species Aedes aegypti strain MONHEIM are placed onto the dried surface. The exposure time is 30 minutes. Mortality in percent (%) is determined 24 hours after contact of the insects to the treated surface. 100% mortality means that all tested insects are dead, whereas 0% means that no insect died.

[16] = test system: Anopheles funestus strain FUMOZ-R; assay: Anopheles funestus test (ANPHFU surface treatment & contact assay); details: surface concentration 20 mg/m^2, 30 minutes exposure, 24 hours after contact, read-out: efficacy (mortality)
Experimental: as §1
(§3) In order to produce a sufficient, active ingredient containing solution it is necessary to solve the test compound in the solvent-mix (acetone at 2 mg/ml/RME 2000 ppm). This solution is pipetted onto a glazed tile and after evaporation of the acetone, adult mosquitoes of the species Anopheles funestus strain FUMOZ-R (Hunt et al., Med. Vet. Entomol. 2005 September; 19(3): 271-275) are placed onto the dried surface. The exposure time is 30 minutes.
(§4) Mortality in percent (%) is determined 24 hours after contact of the insects to the treated surface. 100% mortality means that all tested insects are dead, whereas 0% means that no insect died.

[17] = test system: Musca domestica strain WHO-N; assay: Musca domestica test (MUSCDO surface treatment & contact assay); details: 24 hours after contact, read-out: efficacy (mortality)
Experimental: as §1
as §2, with “flies” for “mosquitoes”, “Musca domestica” for “Aedes aegypti”, “WHO-N” for “MONHEIM”

[18] = test system: Blattella germanica strain PAULINIA; assay: Blattella germanica test (BLTTGE surface treatment & contact assay); details: 24 hours after contact, read-out: efficacy (mortality)
Experimental: as §1
as §3, with “animals” for “mosquitoes”, “Blattella germanica” for “Anopheles funestus”, “PAULINIA” for “FUMOZ-R (Hunt et al., Med. Vet. Entomol. 2005 September; 19(3): 271-275)”
as §4

[19] = surface concentration 4 mg/m^2, 30 minutes exposure
[20] = surface concentration 20 mg/m^2, 30 minutes exposure

Row | Compound | pest or weed control at 0.004 mg [1] [%] | pest or weed control at 0.02 mg [1] [%] | mortality at 500 g/ha [2] [%] | pest or weed control at 5 µg/cm2 [3] [%] | mortality at 100 ppm [4] [%] | pest or weed control at 1 µg/cm2, 100 g/ha [5] [%] | pest or weed control at 5 µg/cm2, 500 g/ha [5] [%] | pest or weed control at 32 µg/disc, 100 g/ha [6] [%] | pest or weed control at 160 µg/disc, 500 g/ha [6] [%] | mortality at 4 ppm [7] [%] | mortality at 100 g/ha [9] [%] | mortality at 500 g/ha [9] [%] | mortality at 100 g/ha [10] [%] | mortality at 500 g/ha [10] [%] | mortality at 20 ppm [11] [%] | further results
1 | CC(NC(=O)c1cc(Cl)cc(C(F)(F)F)c1)c1nc(NC(=O)OC(C)(C)C)nn1-c1ccc(Cl)cn1 (centres unmarked) [I-003] | 80 | 100 | 90 | – | – | – | – | – | – | – | – | – | – | – | – | –
2 | CC(NC(=O)c1cc(Cl)cc(S(C)(=O)=O)c1)c1nc(NC(=O)C2(Cl)CC2)nn1-c1ccc(Cl)cn1 (centres unmarked) [I-012] | 100 | 100 | 90 | 100 | 100 | 100 | 100 | 100 | 100 | 100 | 100 | 100 | 100 | 100 | 100 | mortality at 500 g/ha ([8]; 500 g/ha): 90%
3 | CC(NC(=O)c1cc(Cl)cc(C(F)(F)F)c1)c1nc(NC(=O)CC(F)(F)F)nn1-c1ccc(Cl)cn1 (centres unmarked) [I-016] | 100 | 100 | 90 | 100 | 100 | – | – | 100 | 100 | – | – | – | 100 | 100 | 100 | –
4 | CC(NC(=O)c1cc(Cl)cc(C(F)(F)F)c1)c1nc([S+](C)[O-])nn1-c1ccc(Cl)cn1 (centres unmarked) [I-064] | – | – | 100 | – | – | – | – | 100 | 100 | 100 | 100 | 100 | 100 | 100 | – | pest or weed control at 20 ppm [12]: 90%
5 | C[C@H](NC(=O)c1cc(OC(F)(F)F)cc(C2CC2)c1)c1nc(N(C)C)nn1-c1ncccn1 [I-138] | – | – | – | 100 | – | 100 | 100 | 100 | – | – | – | – | 100 | – | – | pest or weed control at 5 µg/cm2 [13]: 100%; mortality at 100 g/ha ([8]; 100 g/ha): 90%; mortality at 500 g/ha [14]: 100%; mortality at 4 mg/m2 [15, 19]: 90 to 100%; mortality at 20 mg/m2 [15, 20]: 90 to 100%; mortality at 20 mg/m2 [16]: 90 to 100%; mortality at 4 mg/m2 [17, 19]: 90 to 100%; mortality at 20 mg/m2 [17, 20]: 90 to 100%; mortality at 4 mg/m2 [18, 19]: 90 to 100%; mortality at 20 mg/m2 [18, 20]: 90 to 100%
